ChEMBL document CHEMBL3769303, “Discovery of membrane active benzimidazole quinolones-based topoisomerase inhibitors as potential DNA-binding antimicrobial agents” (Eur J Med Chem, 2016)
≈ marks a conversion by molar mass, not a printed value. Calls of active or inactive are those of the source. The rule behind the calls is not given here.

Experiments:
Shigella dysenteriae = assay: Antibacterial activity against Shigella dysenteriae by micro broth dilution method; type: functional
Staphylococcus aureus [1] = assay: Antibacterial activity against methicillin-resistant Staphylococcus aureus N315 by micro broth dilution method; type: functional
Staphylococcus aureus [2] = assay: Antibacterial activity against Staphylococcus aureus ATCC 25923 by micro broth dilution method; type: functional
Micrococcus luteus = assay: Antibacterial activity against Micrococcus luteus ATCC 4698 by micro broth dilution method; type: functional; details: NCTC 2665
Bacillus spizizenii = assay: Antibacterial activity against Bacillus subtilis ATCC 6633 by micro broth dilution method; type: functional
Escherichia coli [3] = assay: Antibacterial activity against Escherichia coli DH52 by micro broth dilution method; type: functional
Escherichia coli [4] = assay: Antibacterial activity against Escherichia coli JM109 by micro broth dilution method; type: functional
Pseudomonas aeruginosa = assay: Antibacterial activity against Pseudomonas aeruginosa ATCC 27853 by micro broth dilution method; type: functional
[5] = Antibacterial activity against Bacillus proteus ATCC 13315 by micro broth dilution method; type: functional
Salmonella enterica = assay: Antibacterial activity against Salmonella enterica ATCC 14028 by micro broth dilution method; type: functional
Staphylococcus aureus [6] = assay: Antibacterial activity against methicillin-resistant Staphylococcus aureus N315 at MIC measured after 6 passages; type: functional, organism-based
Calf thymus DNA = assay: Binding affinity to calf thymus DNA by UV-visible spectroscopy; type: nucleic-acid assay; details: Bos taurus
[7] = Antifungal activity against Candida mycoderma ATCC 9888 after 24 hrs by micro broth dilution method; type: functional; details: Candida vini
Cyberlindnera jadinii = assay: Antifungal activity against Candida utilis ATCC 9950 after 24 hrs by micro broth dilution method; type: functional; details: Williopsis jadinii, ATCC 9950, 24 h
Aspergillus flavus = assay: Antifungal activity against Aspergillus flavus ATCC 204304 after 24 hrs by micro broth dilution method; type: functional; details: ATCC 204304, 24 h
Saccharomyces cerevisiae = assay: Antifungal activity against Saccharomyces cerevisiae ATCC 9763 after 24 hrs by micro broth dilution method; type: functional; details: ATCC 9763, 24 h
Candida albicans = assay: Antifungal activity against Candida albicans ATCC 10231 after 24 hrs by micro broth dilution method; type: functional; details: ATCC 10231, 24 h

| SMILES | MIC (Shigella dysenteriae) [µg/mL] | MIC (Staphylococcus aureus [1]) [µg/mL] | MIC (Staphylococcus aureus [2]) [µg/mL] | MIC (Micrococcus luteus) [µg/mL] | MIC (Bacillus spizizenii) [µg/mL] | MIC (Escherichia coli [3]) [µg/mL] | MIC (Escherichia coli [4]) [µg/mL] | MIC (Pseudomonas aeruginosa) [µg/mL] | MIC [5] [µg/mL] | MIC (Salmonella enterica) [µg/mL] | Activity (Staphylococcus aureus [6]) | Activity (Calf thymus DNA) | MIC80 [7] [µg/mL] | MIC80 (Cyberlindnera jadinii) [µg/mL] | MIC80 (Aspergillus flavus) [µg/mL] | MIC80 (Saccharomyces cerevisiae) [µg/mL] | MIC80 (Candida albicans) [µg/mL] |
| --- | --- | --- | --- | --- | --- | --- | --- | --- | --- | --- | --- | --- | --- | --- | --- | --- | --- |
| CCn1cc(C(=O)O)c(=O)c2cc(F)c(N3CCNCC3)cc21 [NORFLOXACIN] | 16 (≈ 50.1 µM) | 8 (≈ 25.1 µM) | 2 (≈ 6.26 µM) | 2 (≈ 6.26 µM) | 4 (≈ 12.5 µM) | 1 (≈ 3.13 µM) | 1 (≈ 3.13 µM) | 16 (≈ 50.1 µM) | 8 (≈ 25.1 µM) | 4 (≈ 12.5 µM) | inactive | Active |  |  |  |  |  |
| CCCn1c(CN2CCN(c3cc4c(cc3F)c(=O)c(C(=O)O)cn4C3CC3)CC2)nc2ccccc21 | 4 (≈ 7.94 µM) | 2 (≈ 3.97 µM) | 32 (≈ 63.5 µM) | 1 (≈ 1.99 µM) | 32 (≈ 63.5 µM) | 1 (≈ 1.99 µM) | 4 (≈ 7.94 µM) | 1 (≈ 1.99 µM) | 32 (≈ 63.5 µM) | 4 (≈ 7.94 µM) |  |  | 0.5 (≈ 0.993 µM) | 0.5 (≈ 0.993 µM) | 0.5 (≈ 0.993 µM) | 0.5 (≈ 0.993 µM) | 0.25 (≈ 0.496 µM) |
| O=C(O)c1cn(C2CC2)c2cc(N3CCN(Cc4nc5ccc([N+](=O)[O-])cc5[nH]4)CC3)c(F)cc2c1=O | 4 (≈ 7.9 µM) | 2 (≈ 3.95 µM) | 16 (≈ 31.6 µM) | 8 (≈ 15.8 µM) | 8 (≈ 15.8 µM) | 4 (≈ 7.9 µM) | 8 (≈ 15.8 µM) | 0.5 (≈ 0.987 µM) | 4 (≈ 7.9 µM) | 4 (≈ 7.9 µM) |  |  | 8 (≈ 15.8 µM) | 4 (≈ 7.9 µM) | 4 (≈ 7.9 µM) | 4 (≈ 7.9 µM) | 2 (≈ 3.95 µM) |
| CCn1cc(C(=O)O)c(=O)c2cc(F)c(N3CCN(Cc4nc5ccccc5n4Cc4cccc(Cl)c4)CC3)cc21 | 64 (≈ 111 µM) | 2 (≈ 3.48 µM) | 64 (≈ 111 µM) | 2 (≈ 3.48 µM) | 16 (≈ 27.9 µM) | 8 (≈ 13.9 µM) | 64 (≈ 111 µM) | 2 (≈ 3.48 µM) | 32 (≈ 55.7 µM) | 4 (≈ 6.97 µM) |  |  | 2 (≈ 3.48 µM) | 4 (≈ 6.97 µM) | 1 (≈ 1.74 µM) | 8 (≈ 13.9 µM) | 8 (≈ 13.9 µM) |
| CCCCCn1c(CN2CCN(c3cc4c(cc3F)c(=O)c(C(=O)O)cn4C3CC3)CC2)nc2ccccc21 | 8 (≈ 15 µM) | 64 (≈ 120 µM) | 128 (≈ 241 µM) | 4 (≈ 7.52 µM) | 4 (≈ 7.52 µM) | 1 (≈ 1.88 µM) | 128 (≈ 241 µM) | 2 (≈ 3.76 µM) | 2 (≈ 3.76 µM) | 4 (≈ 7.52 µM) |  |  | 2 (≈ 3.76 µM) | 8 (≈ 15 µM) | 256 (≈ 482 µM) | 256 (≈ 482 µM) | 8 (≈ 15 µM) |
| CCn1cc(C(=O)OC)c(=O)c2cc(F)c(N3CCN(/C=N\c4nc5ccccc5[nH]4)CC3)cc21 | 64 (≈ 134 µM) | 128 (≈ 269 µM) | 64 (≈ 134 µM) | 32 (≈ 67.2 µM) | 4 (≈ 8.39 µM) | 32 (≈ 67.2 µM) | 64 (≈ 134 µM) | 8 (≈ 16.8 µM) | 32 (≈ 67.2 µM) | 16 (≈ 33.6 µM) |  |  | 128 (≈ 269 µM) | 64 (≈ 134 µM) | 64 (≈ 134 µM) | 32 (≈ 67.2 µM) | 64 (≈ 134 µM) |
| O=C(O)c1cn(C2CC2)c2cc(N3CCN(Cc4nc5ccccc5n4Cc4ccccc4Cl)CC3)c(F)cc2c1=O | 16 (≈ 27.3 µM) | 4 (≈ 6.83 µM) | 16 (≈ 27.3 µM) | 4 (≈ 6.83 µM) | 0.5 (≈ 0.853 µM) | 2 (≈ 3.41 µM) | 16 (≈ 27.3 µM) | 2 (≈ 3.41 µM) | 1 (≈ 1.71 µM) | 2 (≈ 3.41 µM) |  |  | 4 (≈ 6.83 µM) | 1 (≈ 1.71 µM) | 0.5 (≈ 0.853 µM) | 16 (≈ 27.3 µM) | 8 (≈ 13.7 µM) |
| O=C(O)c1cn(C2CC2)c2cc(N3CCN(Cc4nc5ccccc5n4Cc4ccc(F)cc4)CC3)c(F)cc2c1=O | 16 (≈ 28.1 µM) | 4 (≈ 7.02 µM) | 16 (≈ 28.1 µM) | 16 (≈ 28.1 µM) | 8 (≈ 14 µM) | 32 (≈ 56.2 µM) | 16 (≈ 28.1 µM) | 8 (≈ 14 µM) | 16 (≈ 28.1 µM) | 16 (≈ 28.1 µM) |  |  | 16 (≈ 28.1 µM) | 8 (≈ 14 µM) | 8 (≈ 14 µM) | 16 (≈ 28.1 µM) | 8 (≈ 14 µM) |
| CCn1cc(C(=O)O)c(=O)c2cc(F)c(N3CCN(Cc4nc5ccccc5n4Cc4cccc(F)c4)CC3)cc21 | 1 (≈ 1.79 µM) | 32 (≈ 57.4 µM) | 128 (≈ 230 µM) | 64 (≈ 115 µM) | 128 (≈ 230 µM) | 128 (≈ 230 µM) | 128 (≈ 230 µM) | 8 (≈ 14.3 µM) | 4 (≈ 7.17 µM) | 8 (≈ 14.3 µM) |  |  | 64 (≈ 115 µM) | 32 (≈ 57.4 µM) | 2 (≈ 3.59 µM) | 2 (≈ 3.59 µM) | 64 (≈ 115 µM) |
| O=C(O)c1cn(C2CC2)c2cc(N3CCN(Cc4nc5ccc(F)cc5[nH]4)CC3)c(F)cc2c1=O | 2 (≈ 4.17 µM) | 2 (≈ 4.17 µM) | 4 (≈ 8.34 µM) | 2 (≈ 4.17 µM) | 0.5 (≈ 1.04 µM) | 1 (≈ 2.09 µM) | 4 (≈ 8.34 µM) | 2 (≈ 4.17 µM) | 1 (≈ 2.09 µM) | 1 (≈ 2.09 µM) |  |  | 2 (≈ 4.17 µM) | 1 (≈ 2.09 µM) | 1 (≈ 2.09 µM) | 0.5 (≈ 1.04 µM) | 8 (≈ 16.7 µM) |
| CCn1cc(C(=O)O)c(=O)c2cc(F)c(N3CCN(Cc4nc5ccc(Br)cc5[nH]4)CC3)cc21 | 16 (≈ 30.3 µM) | 32 (≈ 60.6 µM) | 64 (≈ 121 µM) | 2 (≈ 3.79 µM) | 8 (≈ 15.1 µM) | 16 (≈ 30.3 µM) | 16 (≈ 30.3 µM) | 2 (≈ 3.79 µM) | 4 (≈ 7.57 µM) | 8 (≈ 15.1 µM) |  |  | 32 (≈ 60.6 µM) | 16 (≈ 30.3 µM) | 4 (≈ 7.57 µM) | 16 (≈ 30.3 µM) | 64 (≈ 121 µM) |
| CCn1cc(C(=O)O)c(=O)c2cc(F)c(N3CCN(CNc4nc5ccccc5[nH]4)CC3)cc21 | 0.5 (≈ 1.08 µM) | 0.5 (≈ 1.08 µM) | 2 (≈ 4.31 µM) | 4 (≈ 8.61 µM) | 8 (≈ 17.2 µM) | 1 (≈ 2.15 µM) | 16 (≈ 34.4 µM) | 1 (≈ 2.15 µM) | 8 (≈ 17.2 µM) | 2 (≈ 4.31 µM) |  |  | 1 (≈ 2.15 µM) | 1 (≈ 2.15 µM) | 4 (≈ 8.61 µM) | 8 (≈ 17.2 µM) | 2 (≈ 4.31 µM) |
| CCCCCCn1c(CN2CCN(c3cc4c(cc3F)c(=O)c(C(=O)O)cn4C3CC3)CC2)nc2ccccc21 | 64 (≈ 117 µM) | 128 (≈ 235 µM) | 256 (≈ 469 µM) | 32 (≈ 58.6 µM) | 16 (≈ 29.3 µM) | 16 (≈ 29.3 µM) | 64 (≈ 117 µM) | 16 (≈ 29.3 µM) | 16 (≈ 29.3 µM) | 16 (≈ 29.3 µM) |  |  | 8 (≈ 14.7 µM) | 32 (≈ 58.6 µM) | 128 (≈ 235 µM) | 128 (≈ 235 µM) | 16 (≈ 29.3 µM) |
| CCCCCCCCCCCCCCCCCCn1c(CN2CCN(c3cc4c(cc3F)c(=O)c(C(=O)O)cn4C3CC3)CC2)nc2ccccc21 | 64 (≈ 89.6 µM) | 64 (≈ 89.6 µM) | 64 (≈ 89.6 µM) | 128 (≈ 179 µM) | 64 (≈ 89.6 µM) | 128 (≈ 179 µM) | 128 (≈ 179 µM) | 32 (≈ 44.8 µM) | 64 (≈ 89.6 µM) | 16 (≈ 22.4 µM) |  |  | 64 (≈ 89.6 µM) | 128 (≈ 179 µM) | 64 (≈ 89.6 µM) | 64 (≈ 89.6 µM) | 128 (≈ 179 µM) |
